Source: paper PMC6005845 (Frontiers in Cardiovascular Medicine, 2018)
Blank lines part the entries; values can stand above or below the compound they belong to.

How the values were obtained:
[1] = system: SAA; experiment: Plasma SAA ELISA; format: in vivo, APOE*3Leiden.CETP mice; settings: for SAA: after 16 weeks of treatment
Text: (§1) Pouwer et al Supplementary material […]
The inflammatory markers SAA, E-selectin and MCP-
according to the manufacturer’s instruction. […]

[2] = system: APOE*3Leiden.CETP mice; experiment: Plaque composition and lesion stability index in severe (type IV-V) lesions; format: in vivo; settings: 16 weeks
Method: The macrophage and necrosis content were quantified as factors that decrease plaque stability, and smooth muscle cell area in the cap of the lesions and collagen as factors that improve plaque stability ([17, 35, 36]) (Figure 6A). […]
(§2) µm thick with intervals of 50 µm) were taken and mounted on AAS-coated slides. These sections were stained with hematoxylin-phloxine-saffron (HPS) for histological analysis. For each mouse, atherosclerosis was measured in 4 subsequent cross sections. Each section consisted of 3 segments. The average total lesion area per cross section was then calculated20
(§3) 22. For determination of lesion severity the lesions were classified into five categories according to the American Heart Association classification 23: 0) no lesion I) early fatty streak, II) regular fatty streak, III) mild plaque, IV) moderate plaque, and V) severe plaque. The percentage of each lesion type was calculated, where type I-III lesions were classified as mild lesions and type IV-V lesions were classified as severe lesions 20 22. In the aortic root, lesion composition was determined for the severe lesions (type IV -V) as a percentage of lesion area after immunostaining with anti-human alpha-actin (1:400; PROGEN Biotechnik GmbH, Germany) for smooth muscle cells (SMC), and anti -mouse Mac-3 (1:50; BD Pharmingen, the Netherlands) for macrophages followed by Sirius Red staining. After Sirius Red staining for collagen, color intensity was determined in ImageJ and the used threshold was confirmed by evaluation of the sections under polarized light 24. Necrotic area and cholesterol clefts were measured after HPS staining13 20 22. Lesion stability index was calculated as described pre viously13 20. […]

[3] = system: liver; experiment: Liver gene expression analysis (RNA sequencing) and pathway analysis; format: in vivo, APOE*3Leiden.CETP mice; settings: vs control, Figure 7: imatinib 150, nilotinib 30, ponatinib 10 mg/kg
Method: To find early molecular signatures of other clinically relevant processes induced by the anti-CML drugs, gene expression and pathway analysis was performed in the liver as the central organ in lipid metabolism and synthesis of coagulation factors. To identify drug-specific molecular responses and overlap between the various treatments, the total number of differentially expressed genes (DEG) was assessed and a Venn-diagram was constructed comprising all DEG compared to control group. […]
Messenger RNA was isolated from liver of 8 mice per group, using the NEBNext Ultra RNA
sample Prep Kit. After fragmentation of the mRNA, cDNA synthesis was performed. The

[4] = system: APOE*3Leiden.CETP mice; experiment: Blood pressure and heart rate (tail cuff); format: in vivo; settings: after 2 and 15 weeks of treatment, all dose groups, vs control
Text: as §1

[5] = system: APOE*3Leiden.CETP mice; experiment: Plasma cholesterol, triglycerides and HDL-C in the atherosclerosis study; format: in vivo; settings: for reduction of average plasma cholesterol compared to control: p < 0.001; for change of HDL-C vs control: at 16 weeks of treatment
Method: Pouwer et al Supplementary material plasma lipids and a minimal effect of treatment of 30%, resulting in 15 animals per group.
Animal experiments were approved by the Institutional Animal Care and Use Committee of The Netherlands Organization for Applied Research under registration number 3557. […]
Biochemical analyses and blood pressure
EDTA plasma samples were collected throughout the study. Plasma cholesterol and triglycerides were determined every 4 weeks using enzymatic kits (Roche/Hitachi) according […]
HDL-C was measured after precipitation as described previously20. The distribution of […]
protein liquid chromatography (FPLC)9. The inflammatory markers SAA, E-selectin and MCP- […]
according to the manufacturer’s instruction. Plasma ALT and AST were determined using a […]
group at 2 and 15 weeks18. […]

[6] = system: APOE*3Leiden.CETP mice; experiment: Histological assessment of atherosclerosis (lesion area, number, severity) in the aortic root; format: in vivo; settings: 16 weeks
Method: Significance of differences between the groups was calculated in SPSS 22.0 for Windows. Normally distributed data was tested parametrically using a one-way ANOVA for multiple comparisons with a Dunnett’s post-hoc test. Non-parametric data were compared separately with a Mann-Whitney U test with adjusted rejection criteria using a Bonferroni-Holm correction. Correlations between lesion size (after square root transformation) and cholesterol exposure were calculated with a Pearson’s correlation test. All groups were compared with the control group. Values are presented as means ± SD and p-values < 0.05 were considered statistically significant.
Pouwer et al Supplementary material
Dickinson, Franklin Lakes, New Jersey, USA). […]
Histological assessment of lung morphology and atherosclerosis […]
The caudal lung was cross […]
direction of the aortic arch. […]
as §2, with “valve leaflets and smooth muscle cells instead of collagen-rich tissue, serial cross sections (5 µm thick” for “µm thick”
as §3, with “20. In each segment used for lesion quantification, the number of monocytes adhering to the endothelium were counted after immunostaining with AIA 31240 antibody (1:1000; Accurate Chemical and Scientific, New York, New York, USA) 14 20.” for “20.”

[7] = system: ALT; experiment: Plasma ALT (pooled samples); settings: after 16 weeks
[8] = system: AST; experiment: Plasma AST (pooled samples); settings: after 16 weeks

- SAA ([1]; 150 mg/kg BID): 9.6 ± 0.5 µg/mL
- gene expression of Protein C [3]: up-regulated
- gene expression of Protein S [3]: down-regulated
- gene expression of Serpina1 (PAI-1) [3]: up-regulated
- gene expression of Tpa [3]: down-regulated
- gene expression of Upa [3]: down-regulated
Compound: Cc1ccc(NC(=O)c2ccc(CN3CCN(C)CC3)cc2)cc1Nc1nccc(-c2cccnc2)n1 [Imatinib, imatinib]
- effect on plasma SAA ([1]; 150 mg/kg BID, 16 weeks): None of the inflammatory markers were significantly altered
- increase of collagen content of severe lesions vs control ([2]; 150 mg/kg BID, p = 0.004): 47%
- change of αSMC content vs control ([2]; 150 mg/kg BID, p = 0.050 (tended to increase)): +38%
- collagen content (percentage of total plaque area) ([2]; 150 mg/kg BID, type IV-V lesions): 62 ± 17%
- effect on heart rate [4]: not affected
- effect on systolic blood pressure (SBP) [4]: not affected
- reduction of average plasma cholesterol compared to control ([5]; 150 mg/kg BID, 16 week study): 69%
- reduction of average plasma triglyceride levels compared to control ([5]; 150 mg/kg BID, 16 week study, p = 0.019): 36%
- change of total lesion area that consisted of severe (type IV–V) lesions vs control ([6]; 150 mg/kg BID, p < 0.001): −56%
- reduction of atherosclerotic lesion area per cross-section vs control ([6]; 150 mg/kg BID, p < 0.001): 78%
- ALT ([7]; 150 mg/kg BID): 31 U/L
- AST ([8]; 150 mg/kg BID): 147 U/L

- SAA ([1]; 10 mg/kg QD): 10.6 ± 1.0 µg/mL
- SAA ([1]; 30 mg/kg QD): 10.6 ± 1.1 µg/mL
- gene expression of F5 [3]: down-regulation
- gene expression of F9 [3]: down-regulation
- gene expression of Protein S [3]: down-regulation
- gene expression of Serpina1 (PAI-1) [3]: up-regulated
Compound: Cc1cn(-c2cc(NC(=O)c3ccc(C)c(Nc4nccc(-c5cccnc5)n4)c3)cc(C(F)(F)F)c2)cn1 [Nilotinib, nilotinib]
- change of collagen content vs control ([2]; 10 mg/kg, p = 0.003): −32%
- change of lesion stability index vs control ([2]; 10 mg/kg, p = 0.003): −43%
- effect on heart rate [4]: not affected
- effect on systolic blood pressure (SBP) [4]: not affected
- effect on plasma lipid levels ([5]; 10 and 30 mg/kg QD, 16 week study, vs control): no significant effect
- effect on atherosclerotic lesion area ([6]; 10 and 30 mg/kg QD): not affected
- ALT ([7]; 10 mg/kg): 64 U/L
- ALT ([7]; 30 mg/kg): 81 U/L
- AST ([8]; 10 mg/kg): 210 U/L
- AST ([8]; 30 mg/kg): 221 U/L

Compound: Cc1ccc(C(=O)Nc2ccc(CN3CCN(C)CC3)c(C(F)(F)F)c2)cc1C#Cc1cnc2cccnn12 [Ponatinib, ponatinib]
- SAA ([1]; 3 mg/kg QD): 10.4 ± 1.9 µg/mL
- SAA ([1]; 10 mg/kg QD): 15.2 ± 21.1 µg/mL
- effect on plaque stability ([2]; 3 mg/kg): without affecting plaque stability
- change of necrotic core content vs control ([2]; 3 mg/kg, p = 0.001): −58%
- gene expression of F7 [3]: increased
- gene expression of Klkb1 [3]: increased
- gene expression of Kng1a [3]: increased
- gene expression of Tpa [3]: decreased
- gene expression of Upa [3]: decreased
- effect on heart rate [4]: not affected
- effect on systolic blood pressure (SBP) [4]: not affected
- change of HDL-C vs control ([5]; 3 mg/kg QD (low dose), p = 0.003): −30%
- reduction of average plasma cholesterol compared to control ([5]; 3 mg/kg QD, 16 week study): 37%
- change of HDL-C vs control ([5]; 10 mg/kg QD (high dose), p = 0.016): −25%
- reduction of average plasma cholesterol compared to control ([5]; 10 mg/kg QD, 16 week study): 44%
- reduction of atherosclerotic lesion area per cross-section vs control ([6]; 3 mg/kg QD, p = 0.002): 52%
- change of lesion severity, mild lesions (type I-III) ([6]; 10 mg/kg QD, p < 0.01 (Figure 4B)): +64%
- reduction of atherosclerotic lesion area per cross-section vs control ([6]; 10 mg/kg QD, p = 0.006): 48%
- ALT ([7]; 3 mg/kg): 44 U/L
- ALT ([7]; 10 mg/kg): 31 U/L
- AST ([8]; 3 mg/kg): 196 U/L
- AST ([8]; 10 mg/kg): 207 U/L
